In patent US9133230B2, “Hydrazone derivatives having potent antitumor activity toward multi-drug resistant tumor cells” (THE UNITED STATES OF AMERICA AS REPRESENTED BY THE …, priority 2011, dated 2015):

Columns and labels:
Assay type in all cases: cell-based
[1] = system: human colon carcinoma HT-29; assay: MTS cytotoxicity assay, HT-29; conditions: 48 h incubation
Method: (§1) In order to obtain information about the growth-inhibiting action of hydrazones reported in the present invention on tumor cells, growth inhibition was assessed for the following human tumor cell lines: human myelogenous leukemia K562, human cervical adenocarcinoma HeLa, human colon adenocarcinoma Caco-2, human colon carcinoma HT-29, human colon carcinoma HCT-15, and human breast carcinoma MCF-7.
(§2) The K562, HeLa, HT-29, HCT-15, Caco-2, and MCF-7 cell lines were obtained from the American type Culture Collection (ATCC, Manassas, Va.). K562 cells were maintained in RPMI 1640 medium (Gibco/Life Technologies, Gaithersburg, Md.) containing 10% heat-inactivated fetal bovine serum (FBS) (Atlanta Biologicals, Atlanta, Ga.) and 10000 U/L penicillin and 50 mg/L streptomycin. HeLa, HT-29, HCT-15, Caco-2 and MCF-7 cells were maintained in MEM with Earl's balanced salts, 10% FBS, penicillin, and streptomycin as above. Logarithmically growing HT-29, Caco-2, and MCF-7 cells were incubated with 0.05% trypsin containing 1 mM EDTA at 37° C. for about 5 min until cells were nonadherent and formed a single cell suspension. Trypsin activity was neutralized by adding 20-fold excess of the serum-containing medium. Cells were cultured at 37° C. in an atmosphere of air and 5% CO2.
(§3) Cytotoxicity assays were conducted by tetrazolium reduction of 3-(4,5-dimethylthiazol-2-yl)-5-(3-carboxymethoxyphenyl)-2-(4-sulfophenyl)-2H-tetrazolium (MTS) with N-methylphenazonium methyl sulfate (PMS) (CellTiter Assay, Promega, Madison, Wis.). Logarithmically growing cells were plated in 0.1 mL aliquots in 96-well microtiter plates. Cells were plated at an initial density of about 5000 cells/mL and allowed to acclimatize for 24 h. Cell suspensions were treated with various dilutions of compounds in triplicate, mixed well, and allowed to incubate for 48 h at 37° C. in an atmosphere of air and 5% CO2. To the cell suspension was added 20 μL of tetrazolium reagent, the mixture was incubated for 2 h at 37° C. in an atmosphere of air and 5% CO2, and absorbance at 490 nm was read by microplate reader. Control plates with serial dilutions of cell types were counted as a control for the assay. In all cases, controls indicated a linear response versus cell number, R^2≧0.99.

[2] = system: human colon carcinoma HCT-15; assay: MTS cytotoxicity assay, HCT-15; conditions: 48 h incubation
Method: as §1, §2, §3

[3] = system: colon cancer cell lines; assay: NCI 60 human tumor cell line screen, colon; conditions: arithmetic mean of two to nine cancer cell lines, read-out: Inhibitory concentration GI50, colon
Source text: (§4) Selected compounds were submitted for testing in the organ-specific panel of human tumor cell lines at the National Cancer Institute, Bethesda, Md. This screen utilized 60 human tumor cell lines, representing leukemia, melanoma, and cancers of the lung, colon, brain, ovary, kidney, prostate, and breast (Boyd, M. R., “Status of the NCl preclinical antitumor drug discovery screen”. In Principles and practice of oncology updates; De Vita, V. T., Jr. Hellman, S., Rosenberg, S. A., Eds.; Lippincott: Philadelphia, Pa., 1989; Vol. 3, pp 1-12).
(§5) The MG MID value is the average of the GI50 values for all the cell lines tested for drug concentrations in the range of 10^−4-10^−8 M (See website domain: dtp.nci.nih.gov/dtp).

[4] = system: HL60-VCR; assay: MTS cytotoxicity on MDR tumor cells, HL60-VCR; conditions: Vincristine (VCR) resistant, 72 hr incubation
[5] = system: CNS cancer cell lines; assay: NCI 60 human tumor cell line screen, CNS; conditions: arithmetic mean of two to nine cancer cell lines, read-out: Inhibitory concentration GI50, CNS
Source text: as §4, §5

[6] = system: renal cancer cell lines; assay: NCI 60 human tumor cell line screen, renal; conditions: arithmetic mean of two to nine cancer cell lines, read-out: Inhibitory concentration GI50, renal
Source text: as §4, §5

[7] = system: human colorectal carcinoma HT29; assay: Annexin-V FACS analysis of apoptosis; conditions: FIGS. 3 and 4, treated versus control cells
Method: This activation was through ERK signaling and not through JNK signaling, resulting in PARP cleavage after 16 h. […] Activation of NFkB (p50) was also observed following treatment with these compounds.

[8] = system: human breast carcinoma MCF-7; assay: MTS cytotoxicity assay, MCF-7; conditions: 48 h incubation
Method: as §1, §2, §3

[9] = system: melanoma cell lines; assay: NCI 60 human tumor cell line screen, melanoma; conditions: arithmetic mean of two to nine cancer cell lines, read-out: Inhibitory concentration GI50, melanoma
Source text: as §4, §5

[10] = system: prostate cancer cell lines; assay: NCI 60 human tumor cell line screen, prostate; conditions: arithmetic mean of two to nine cancer cell lines, read-out: Inhibitory concentration GI50, prostrate
Source text: as §4, §5

[11] = system: 60 human tumor cell lines; assay: NCI 60 human tumor cell line screen, all cell lines
Source text: as §4, §5

[12] = system: human colon adenocarcinoma Caco-2; assay: MTS cytotoxicity assay, Caco-2; conditions: 48 h incubation
Method: as §1, §2, §3

[13] = system: leukemia cell lines; assay: NCI 60 human tumor cell line screen, leukemia; conditions: arithmetic mean of two to nine cancer cell lines, read-out: Inhibitory concentration GI50, leukemia
Source text: as §4, §5

[14] = system: human myelogenous leukemia K562; assay: MTS cytotoxicity assay, K562; conditions: 48 h incubation
Method: as §1, §2, §3

[15] = system: human cervical adenocarcinoma HeLa; assay: MTS cytotoxicity assay, HeLa; conditions: 48 h incubation
Method: as §1, §2, §3

[16] = system: nonsmall cell lung cancer cell lines; assay: NCI 60 human tumor cell line screen, NSCL; conditions: arithmetic mean of two to nine cancer cell lines, read-out: Inhibitory concentration GI50, NSCL
Source text: as §4, §5

[17] = system: human colorectal carcinoma HT29; assay: Western blot of signal transduction pathways in HT29 cells; conditions: HT29, IC50 dose
[18] = system: human colorectal carcinoma HT29; assay: as above; conditions: HT29, IC50 dose; remark: listed apart in the source
Method: The newly synthesized hydrazones RPC038, RPC042, and RPC046 had shown anti-tumor activity against 60 human cancer cell lines panel of the National Cancer Institute and on multi-drug resistant cell lines. The present studies were conducted to evaluate their action on signal transduction pathways in human colorectal carcinoma HT29. All the three compounds were examined at their IC50 doses.
Human colorectal carcinoma HT29 cells were obtained from the National Cancer Institute, Bethesda, Md., USA, and maintained in 5% CO2 at 37° C. in minimum essential media (Life Technologies, Inc., Grand Island, N.Y., USA) supplemented with 1% penicillin, streptomycin (Invitrogen, Carlsbad, Calif., USA), and 10% fetal bovine serum for optimal growth. HT29 cells (1×10^6) were plated in […], and 24 h later, fresh media was added and treated with the RPC038, RPC042 and RPC046 for indicated time points (2, 4, 8, 16 and 24 h). The cells were then washed with cold phosphate buffered saline (PBS) and taken in 1 ml PBS on ice and centrifuged at 4° C. The pellet was resuspended in appropriate volumes of radio immunoprecipitation assay buffer with protease inhibitor, kept on ice for 45 min and subsequently centrifuged at 4° C. An aliquot of supernatant (protein extract) was used to estimate the protein concentration. An aliquot of protein extract (40 μg) was subjected to Western blot analysis on a 12% polyacrylamide gel and transferred to nitrocellulose membrane. Blots were blocked, incubated with primary anti-pMEK, pERK, pJNK, pcjun, ERK, JNK, Cjun, Caspase-8, Caspase-6, PARP cleavage, or GAPDH antibodies (Cell Signaling Technology, Danvers, Mass.) and then conjugated with a secondary anti-mouse or an anti-rabbit horseradish […] antibody, and detected by ChemiDoc™ XRS+ System with Image Lab™ Software.

[19] = system: ovarian cancer cell lines; assay: NCI 60 human tumor cell line screen, ovarian; conditions: arithmetic mean of two to nine cancer cell lines, read-out: Inhibitory concentration GI50, ovarian
Source text: as §4, §5

[20] = system: HL60; assay: MTS cytotoxicity on MDR tumor cells, HL60; conditions: Vincristine (VCR) sensitive, 72 hr incubation
[21] = system: breast cancer cell lines; assay: NCI 60 human tumor cell line screen, breast; conditions: arithmetic mean of two to nine cancer cell lines, read-out: Inhibitory concentration GI50, breast
Source text: as §4, §5

SMILES: OC[C@H]1OC(n2cnc3c(NN=Cc4ccccn4)ncnc32)[C@H](O)[C@@H]1O (some centres unmarked) [I-9]
- GI50 [1]: 2000 nM
- GI50 [2]: < 1000 nM
- GI50 [3]: 251 nM
- GI50 [4]: 1500 nM
- GI50 [5]: 271 nM
- GI50 [6]: 219 nM
- Apoptosis (Annexin-V, FACS analysis) [7]: Apoptosis was also established
- GI50 [8]: 2000 nM
- GI50 [9]: 347 nM
- GI50 [10]: 137 nM
- cells found to be the most sensitive ([11]; NCI screen, by cancer type): leukemia, prostate, ovarian, and renal cancer cell lines
- mean GI50 (MG-MID) ([11]; average of the GI50 values for all the cell lines tested, drug concentrations 10^−4-10^−8 M, read-out: MG-MID (mean graph midpoint)): 228 nM
- GI50 [12]: 400 nM
- GI50 [13]: 116 nM
- GI50 [14]: 1500 nM
- GI50 [15]: 1200 nM
- GI50 [16]: 269 nM
- Activation of NFkB (p50) [17]: observed
- phosphorylation of ERK (time) ([18]; Western blot pERK): 4 h
- phosphorylation of JNK ([18]; Western blot pJNK (results not shown)): without phosphorylation of JNK
- MEK activation (time) ([18]; Western blot pMEK): 2 h
- activation of cjun (time) ([18]; Western blot pcjun): 6 h
- Caspase activation ([18]; initial studies): Caspase-3 activation through Caspase-6 and not through Caspase-8
- GI50 [19]: 196 nM
- GI50 [20]: 1000 nM
- GI50 [21]: 250 nM
